Assay results as given in ChEMBL document CHEMBL1201862, “PubChem BioAssay data set” (2004).
Active and inactive are the calls of the source.

Experiments:
[1] = target: T1, Microphthalmia-associated transcription factor (Homo sapiens, UniProt O75030); test: reducers of TRPM1 reporter luminescence, concentration series – cell-based, SK-MEL-5, cherry-picked, set 3, MITF inhibitor project, dose response (AID 493073); type: functional;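 also: SK-MEL-5 melanoma cells with luciferase driven by the MITF target TRPM1 promoter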
T1 sequence (O75030 whole entry): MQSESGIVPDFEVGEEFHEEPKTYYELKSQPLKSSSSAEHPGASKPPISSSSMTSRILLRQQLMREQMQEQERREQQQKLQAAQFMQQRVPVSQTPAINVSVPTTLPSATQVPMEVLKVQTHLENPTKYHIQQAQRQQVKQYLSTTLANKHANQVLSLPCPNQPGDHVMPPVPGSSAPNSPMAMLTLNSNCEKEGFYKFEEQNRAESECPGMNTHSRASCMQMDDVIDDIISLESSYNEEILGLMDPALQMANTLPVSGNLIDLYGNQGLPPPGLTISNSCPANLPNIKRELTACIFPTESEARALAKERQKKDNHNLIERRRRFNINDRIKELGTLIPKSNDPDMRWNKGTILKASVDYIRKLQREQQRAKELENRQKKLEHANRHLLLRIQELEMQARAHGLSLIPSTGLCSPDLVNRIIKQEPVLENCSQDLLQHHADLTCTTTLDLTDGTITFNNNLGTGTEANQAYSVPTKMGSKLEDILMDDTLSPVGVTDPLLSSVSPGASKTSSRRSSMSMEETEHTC

[2] = target: T2, Short transient receptor potential channel 4 (Mus musculus, UniProt Q9QUQ5); test: calcium entry via TRPC4 opening agents – cell-based, HEK293 TRPC4/mu-opioid, Fluo-4 calcium, dose response (AID 434937); type: functional
T2 sequence (Q9QUQ5 whole entry): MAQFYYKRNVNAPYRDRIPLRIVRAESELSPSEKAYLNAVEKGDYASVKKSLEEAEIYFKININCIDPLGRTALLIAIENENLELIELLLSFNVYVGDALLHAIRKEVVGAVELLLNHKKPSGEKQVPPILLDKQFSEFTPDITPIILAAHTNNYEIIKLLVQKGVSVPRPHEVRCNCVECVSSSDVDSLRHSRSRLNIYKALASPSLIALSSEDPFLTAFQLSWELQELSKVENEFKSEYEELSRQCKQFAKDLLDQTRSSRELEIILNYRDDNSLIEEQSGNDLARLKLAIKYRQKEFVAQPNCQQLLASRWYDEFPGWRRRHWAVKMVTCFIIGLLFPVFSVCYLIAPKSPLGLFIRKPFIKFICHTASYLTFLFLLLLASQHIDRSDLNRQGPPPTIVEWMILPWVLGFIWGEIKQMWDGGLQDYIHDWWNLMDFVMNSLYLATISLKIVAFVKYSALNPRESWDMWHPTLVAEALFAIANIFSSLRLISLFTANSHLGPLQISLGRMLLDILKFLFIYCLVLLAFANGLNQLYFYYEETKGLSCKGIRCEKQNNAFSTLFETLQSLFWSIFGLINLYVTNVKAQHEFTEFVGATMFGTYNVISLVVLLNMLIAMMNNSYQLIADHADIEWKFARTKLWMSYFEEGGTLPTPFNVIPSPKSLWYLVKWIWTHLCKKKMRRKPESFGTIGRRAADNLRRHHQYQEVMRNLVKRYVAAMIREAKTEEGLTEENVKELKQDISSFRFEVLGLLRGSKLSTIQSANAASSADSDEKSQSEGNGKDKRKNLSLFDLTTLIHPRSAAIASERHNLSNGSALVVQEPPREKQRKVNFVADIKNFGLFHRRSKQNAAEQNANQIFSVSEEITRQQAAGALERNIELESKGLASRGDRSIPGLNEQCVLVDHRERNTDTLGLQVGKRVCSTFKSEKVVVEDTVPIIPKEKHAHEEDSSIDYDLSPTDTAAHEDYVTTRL

[3] = NIH3T3 cell viability loss – ATP luminescence, mouse fibroblasts, counter-screen, dose response (AID 2010); type: functional, cell-based;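 also: cells exposed to compound for about 90 hours before reading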
[4] = Trypanosoma cruzi growth suppression in host cells – NIH3T3 host cells, beta-gal luminescence, confirmation (AID 2044); type: functional, cell-based;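 also: intracellular parasites grown in NIH/3T3 mouse fibroblasts as host cells; luminescent beta-galactosidase reporter signal from transgenic T. cruzi replicating inside host cells; inhibitors lower the luminescence signal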
[5] = cells
[6] = target: T3, High affinity choline transporter 1 (Homo sapiens, UniProt Q9GZV3); test: human choline transporter blockers, potency – cell-based, 10-point CRC, membrane potential dye, dose response (AID 588401); type: functional;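 also: membrane potential dye fluorescence of choline-evoked depolarization via CHT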
T3 sequence (Q9GZV3 whole entry): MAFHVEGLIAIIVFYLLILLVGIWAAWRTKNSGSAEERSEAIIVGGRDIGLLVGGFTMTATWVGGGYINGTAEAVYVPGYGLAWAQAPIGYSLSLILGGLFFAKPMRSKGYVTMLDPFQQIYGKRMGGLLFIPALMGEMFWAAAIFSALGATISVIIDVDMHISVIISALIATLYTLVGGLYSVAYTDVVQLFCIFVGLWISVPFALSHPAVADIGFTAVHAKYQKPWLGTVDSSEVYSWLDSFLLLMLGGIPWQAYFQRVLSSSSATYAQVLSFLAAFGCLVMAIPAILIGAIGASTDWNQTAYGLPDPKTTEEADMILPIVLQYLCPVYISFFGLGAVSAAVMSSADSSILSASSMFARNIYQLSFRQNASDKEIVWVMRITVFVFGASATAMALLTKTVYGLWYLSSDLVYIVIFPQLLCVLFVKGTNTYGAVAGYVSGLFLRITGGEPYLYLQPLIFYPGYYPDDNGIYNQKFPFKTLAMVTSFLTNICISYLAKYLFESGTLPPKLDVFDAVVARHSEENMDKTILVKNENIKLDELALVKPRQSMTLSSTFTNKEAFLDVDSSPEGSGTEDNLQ

[7] = target: T3, High affinity choline transporter 1; test: human choline transporter blockers, potency – cell-based, 5-point CRC, membrane potential dye, dose response (AID 504840); type: functional
[8] = target: Cytochrome P450 2D6 (Homo sapiens, UniProt P10635);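 also: CYP2D6 member of a cytochrome P450 panel assay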
Sequence of Cytochrome P450 2D6 (P10635 whole entry): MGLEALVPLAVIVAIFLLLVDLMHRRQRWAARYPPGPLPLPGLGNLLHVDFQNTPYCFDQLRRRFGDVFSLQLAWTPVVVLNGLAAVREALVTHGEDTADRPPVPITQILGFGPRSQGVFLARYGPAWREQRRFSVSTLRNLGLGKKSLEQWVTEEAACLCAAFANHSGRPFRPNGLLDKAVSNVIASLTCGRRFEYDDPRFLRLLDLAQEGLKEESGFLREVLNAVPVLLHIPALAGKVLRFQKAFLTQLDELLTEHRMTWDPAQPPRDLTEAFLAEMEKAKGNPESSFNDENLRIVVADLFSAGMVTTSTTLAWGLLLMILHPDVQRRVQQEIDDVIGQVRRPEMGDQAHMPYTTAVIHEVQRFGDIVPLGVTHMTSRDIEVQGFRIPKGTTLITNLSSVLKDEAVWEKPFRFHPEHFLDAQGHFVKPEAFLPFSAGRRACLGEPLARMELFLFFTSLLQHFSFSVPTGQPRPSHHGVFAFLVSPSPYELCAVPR

[9] = target: Heat shock protein HSP 90-alpha (Homo sapiens, UniProt P07900); type: functional, organism-based
[10] = viability of HCT116 lacking mutant beta-catenin – cell-based, human colon tumor, dose response (AID 1045); type: functional;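 also: HCT116 colon tumor cells with beta catenin knocked out; cells exposed to compound for 60 hours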
[11] = viability of PTEN-deleted HCT116 cells – cell-based, HCT116 PTEN knockout, dose response (AID 1047); type: functional;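 also: HCT116 colon tumor cells with PTEN knocked out; cells exposed to compound for 60 hours before readout; potency for loss of cell viability measured by luminescence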
[12] = target: T2, Short transient receptor potential channel 4; test: block of DAMGO-driven TRPC4 calcium entry – cell-based, HEK293 TRPC4/mu-opioid, Fluo-4 calcium, dose response (AID 434942); type: functional;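 also: potency of inhibitors blocking the TRPC4 calcium response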
[13] = target: T4, Heat shock factor protein 1 (Mus musculus, UniProt P38532); test: decrease of HSF1-responsive luciferase luminescence – cell-based, NIH3T3, dose retest, confirmation (AID 2382); type: functional;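 also: NIH3T3 fibroblasts with HSF1-driven luciferase reporter stressed by proteasome inhibitor MG132; luminescence from HSF1-driven luciferase expression after 8 hours of MG132 stress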
T4 sequence (P38532 whole entry): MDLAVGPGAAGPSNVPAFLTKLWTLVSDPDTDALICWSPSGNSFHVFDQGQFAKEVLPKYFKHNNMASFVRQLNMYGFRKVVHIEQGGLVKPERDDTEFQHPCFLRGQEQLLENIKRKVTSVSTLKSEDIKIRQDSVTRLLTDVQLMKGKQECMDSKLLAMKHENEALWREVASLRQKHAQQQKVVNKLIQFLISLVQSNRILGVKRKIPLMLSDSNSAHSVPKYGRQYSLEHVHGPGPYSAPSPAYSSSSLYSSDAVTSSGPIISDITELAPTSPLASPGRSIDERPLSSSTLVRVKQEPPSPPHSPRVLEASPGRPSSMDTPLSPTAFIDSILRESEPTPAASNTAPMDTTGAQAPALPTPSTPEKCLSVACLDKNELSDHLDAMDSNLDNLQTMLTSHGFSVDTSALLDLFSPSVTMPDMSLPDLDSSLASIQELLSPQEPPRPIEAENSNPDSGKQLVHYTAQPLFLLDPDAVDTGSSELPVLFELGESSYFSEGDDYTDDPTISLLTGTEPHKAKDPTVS

[14] = target: Luciferin 4-monooxygenase (Photinus pyralis, UniProt P08659); test: inhibition of purified Photinus pyralis luciferase – biochemical, luminescence, dose response (AID 1891)
Sequence of Luciferin 4-monooxygenase (P08659 whole entry): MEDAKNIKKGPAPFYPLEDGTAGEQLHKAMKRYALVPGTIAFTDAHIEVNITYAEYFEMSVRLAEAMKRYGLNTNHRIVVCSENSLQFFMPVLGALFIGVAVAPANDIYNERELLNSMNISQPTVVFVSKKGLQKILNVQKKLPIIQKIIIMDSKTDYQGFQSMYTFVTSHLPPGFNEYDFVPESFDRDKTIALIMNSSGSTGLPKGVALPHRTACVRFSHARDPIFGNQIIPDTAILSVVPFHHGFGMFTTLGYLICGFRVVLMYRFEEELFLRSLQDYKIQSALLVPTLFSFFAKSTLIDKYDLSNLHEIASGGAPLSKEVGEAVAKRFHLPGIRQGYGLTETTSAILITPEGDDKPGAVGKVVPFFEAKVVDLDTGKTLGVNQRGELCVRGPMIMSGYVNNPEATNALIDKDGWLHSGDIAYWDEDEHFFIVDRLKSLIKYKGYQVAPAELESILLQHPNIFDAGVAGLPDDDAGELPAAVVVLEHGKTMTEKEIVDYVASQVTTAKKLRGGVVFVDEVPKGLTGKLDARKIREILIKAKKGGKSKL

[15] = tested on: INS1; test: INS-1E survival protection against cytokine death – cell-based, luminescence, retest, dose response (AID 449756); type: functional; conditions: Rattus norvegicus;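 also: cell death triggered by IL-1 beta plus TNF-alpha plus IFN-gamma mixture; protective hits raise ATP signal compared with cytokine alone wells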
[16] = tested on: Streptococcus sp. 'group A'; test: Streptococcus pyogenes SK(-)GAS viability under kanamycin – luminescence, BacTiterGlo, confirmation, counter-screen for streptokinase expression inhibitor project, dose response (AID 1900); type: functional, organism-based
[17] = NIH-3T3 fibroblast cytotoxicity, dose response, cytotoxicity control, cell-based, fluorescence, Alamar Blue, secondary assay (AID 2327); type: functional;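 also: NIH-3T3 mouse fibroblasts cultured with fluconazole at 8 µg/mL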
[18] = fluconazole-exposed Candida albicans growth modulators – fluorescence, retest, confirmation (AID 2467); type: functional, cell-based
[19] = Luminescence Cell-Based Dose Confirmation HTS to Identify Inhibitors of Platelet Dense Granule Release. [Related pubchem assays: 1663 (Primary HTS), 1678 (Summary of Project)]; type: functional
[20] = tested on: HEK293; test: EBV LMP1 TES2 canonical NF-kB signalling blockers – cell-based, HEK293, luciferase, cherry-pick, dose response (AID 588343); type: functional; conditions: Homo sapiens
[21] = tested on: Streptococcus; test: GAS UMAA2166 growth inhibition – luminescence, BacTiterGlo, counter-screen for streptokinase expression inhibitor project, dose response (AID 1915); type: functional, organism-based;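 also: potency for reduction of bacterial viability or growth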
[22] = target: T5, Voltage-gated N-type calcium channel alpha-1B subunit/Amyloid beta A4 precursor protein-binding family A member 1 (Homo sapiens, UniProt Q00975+Q02410); type: protein assay
T5 sequence (Q00975 whole entry): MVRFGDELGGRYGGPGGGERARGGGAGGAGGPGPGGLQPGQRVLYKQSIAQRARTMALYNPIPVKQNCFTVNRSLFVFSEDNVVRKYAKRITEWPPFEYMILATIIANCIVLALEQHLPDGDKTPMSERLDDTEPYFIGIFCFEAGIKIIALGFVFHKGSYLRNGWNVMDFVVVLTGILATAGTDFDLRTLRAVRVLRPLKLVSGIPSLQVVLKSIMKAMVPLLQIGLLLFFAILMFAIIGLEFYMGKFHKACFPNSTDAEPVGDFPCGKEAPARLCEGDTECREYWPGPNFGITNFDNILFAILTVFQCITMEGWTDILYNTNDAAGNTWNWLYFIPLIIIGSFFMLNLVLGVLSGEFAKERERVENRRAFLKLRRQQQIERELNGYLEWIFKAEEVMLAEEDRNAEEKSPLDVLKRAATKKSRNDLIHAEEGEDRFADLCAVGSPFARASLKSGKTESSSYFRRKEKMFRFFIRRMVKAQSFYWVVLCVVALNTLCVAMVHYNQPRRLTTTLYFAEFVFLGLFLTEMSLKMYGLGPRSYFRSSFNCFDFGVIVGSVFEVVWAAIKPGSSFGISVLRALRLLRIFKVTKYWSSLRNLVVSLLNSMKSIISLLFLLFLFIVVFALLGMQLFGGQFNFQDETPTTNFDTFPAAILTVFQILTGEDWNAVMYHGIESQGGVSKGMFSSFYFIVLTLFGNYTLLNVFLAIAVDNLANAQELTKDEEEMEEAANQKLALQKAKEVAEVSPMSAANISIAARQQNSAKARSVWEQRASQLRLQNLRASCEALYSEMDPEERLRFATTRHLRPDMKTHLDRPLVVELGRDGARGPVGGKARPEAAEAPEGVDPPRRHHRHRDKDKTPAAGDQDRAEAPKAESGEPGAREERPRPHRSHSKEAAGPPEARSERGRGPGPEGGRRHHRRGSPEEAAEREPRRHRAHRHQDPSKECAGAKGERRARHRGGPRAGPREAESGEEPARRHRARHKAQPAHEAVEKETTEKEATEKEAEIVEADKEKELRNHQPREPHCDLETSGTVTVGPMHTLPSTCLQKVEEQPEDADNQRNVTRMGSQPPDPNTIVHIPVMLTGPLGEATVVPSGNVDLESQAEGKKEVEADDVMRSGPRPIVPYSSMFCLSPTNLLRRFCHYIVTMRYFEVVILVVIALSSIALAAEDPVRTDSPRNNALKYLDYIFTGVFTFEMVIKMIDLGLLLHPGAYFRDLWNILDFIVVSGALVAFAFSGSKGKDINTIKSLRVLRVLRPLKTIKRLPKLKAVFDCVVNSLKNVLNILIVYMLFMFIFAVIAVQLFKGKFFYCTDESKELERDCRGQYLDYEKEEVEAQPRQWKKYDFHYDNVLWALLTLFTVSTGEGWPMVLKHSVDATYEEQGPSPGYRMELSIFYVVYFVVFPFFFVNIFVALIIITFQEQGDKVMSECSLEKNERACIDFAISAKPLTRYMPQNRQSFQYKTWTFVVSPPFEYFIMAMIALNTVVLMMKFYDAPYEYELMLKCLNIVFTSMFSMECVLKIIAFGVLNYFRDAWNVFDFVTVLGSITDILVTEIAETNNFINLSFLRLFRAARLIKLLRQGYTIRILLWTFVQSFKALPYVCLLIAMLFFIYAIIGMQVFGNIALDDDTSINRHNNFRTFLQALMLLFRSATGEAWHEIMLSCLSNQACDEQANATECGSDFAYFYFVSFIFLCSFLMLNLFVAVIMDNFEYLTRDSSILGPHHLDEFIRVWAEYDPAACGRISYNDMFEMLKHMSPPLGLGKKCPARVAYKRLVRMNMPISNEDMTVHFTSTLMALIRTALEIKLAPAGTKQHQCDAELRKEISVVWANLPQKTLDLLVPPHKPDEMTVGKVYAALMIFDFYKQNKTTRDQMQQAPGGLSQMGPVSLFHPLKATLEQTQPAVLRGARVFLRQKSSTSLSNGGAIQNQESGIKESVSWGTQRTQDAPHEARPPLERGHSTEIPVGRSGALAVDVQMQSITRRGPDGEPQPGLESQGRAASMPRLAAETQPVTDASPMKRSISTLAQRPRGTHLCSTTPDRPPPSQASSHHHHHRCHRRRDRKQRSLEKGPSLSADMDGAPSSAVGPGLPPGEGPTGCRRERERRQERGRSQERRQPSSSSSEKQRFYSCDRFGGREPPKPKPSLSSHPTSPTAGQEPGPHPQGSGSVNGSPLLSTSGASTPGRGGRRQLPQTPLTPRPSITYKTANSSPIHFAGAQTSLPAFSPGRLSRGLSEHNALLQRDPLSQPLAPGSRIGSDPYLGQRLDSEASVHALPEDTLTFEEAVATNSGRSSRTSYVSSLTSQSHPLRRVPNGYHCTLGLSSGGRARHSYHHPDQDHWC
T5 sequence (Q02410 whole entry): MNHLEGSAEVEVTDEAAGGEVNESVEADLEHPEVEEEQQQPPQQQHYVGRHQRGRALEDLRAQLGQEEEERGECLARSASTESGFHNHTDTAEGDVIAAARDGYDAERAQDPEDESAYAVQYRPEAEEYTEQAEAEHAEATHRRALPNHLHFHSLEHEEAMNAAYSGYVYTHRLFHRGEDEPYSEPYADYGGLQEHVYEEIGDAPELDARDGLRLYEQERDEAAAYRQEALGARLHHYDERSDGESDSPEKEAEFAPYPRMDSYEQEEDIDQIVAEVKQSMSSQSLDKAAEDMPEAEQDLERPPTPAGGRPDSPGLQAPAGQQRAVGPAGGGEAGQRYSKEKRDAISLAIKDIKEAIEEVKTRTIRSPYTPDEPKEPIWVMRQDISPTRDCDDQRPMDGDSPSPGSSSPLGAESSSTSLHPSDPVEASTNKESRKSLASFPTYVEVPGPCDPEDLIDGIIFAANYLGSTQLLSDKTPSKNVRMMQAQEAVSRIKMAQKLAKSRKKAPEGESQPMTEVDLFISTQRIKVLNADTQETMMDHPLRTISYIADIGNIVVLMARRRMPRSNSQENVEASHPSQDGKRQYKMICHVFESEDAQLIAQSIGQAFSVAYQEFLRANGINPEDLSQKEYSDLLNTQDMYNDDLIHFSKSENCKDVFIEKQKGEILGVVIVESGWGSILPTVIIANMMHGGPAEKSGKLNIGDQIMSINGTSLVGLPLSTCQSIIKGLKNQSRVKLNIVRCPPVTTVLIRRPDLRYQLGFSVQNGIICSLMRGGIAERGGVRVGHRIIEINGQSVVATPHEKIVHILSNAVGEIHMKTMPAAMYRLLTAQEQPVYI

[23] = target: T6, Calpain-2 catalytic subunit (Sus scrofa, UniProt P43367); test: m-calpain protease blockers, concentration series – biochemical, fluorogenic peptide substrate, dose response (AID 1420); type: functional
T6 sequence (P43367 whole entry): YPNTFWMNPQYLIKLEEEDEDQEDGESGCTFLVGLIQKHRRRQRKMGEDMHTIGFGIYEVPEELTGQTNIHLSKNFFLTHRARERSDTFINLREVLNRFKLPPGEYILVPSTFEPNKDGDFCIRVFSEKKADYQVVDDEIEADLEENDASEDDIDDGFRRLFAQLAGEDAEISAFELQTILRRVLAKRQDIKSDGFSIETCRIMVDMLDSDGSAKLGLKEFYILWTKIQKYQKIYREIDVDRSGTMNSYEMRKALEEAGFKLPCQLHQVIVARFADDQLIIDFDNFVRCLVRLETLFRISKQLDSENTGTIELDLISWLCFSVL

[24] = target: T5, Voltage-gated N-type calcium channel alpha-1B subunit/Amyloid beta A4 precursor protein-binding family A member 1; type: protein assay; remark: listed apart in the source
[25] = Luminescence-based cell-based high throughput dose response assay to identify activators of the DAF-12 from the parasite S. stercoralis (ssDAF-12).; type: functional

N#Cc1cc2c(nc1SC1CC(=O)N(c3ccccc3)C1=O)CCC2 (stereo not given)
AC50 [1]: 1.78 µM (active)

CN(C)C(CN=C(S)Nc1ccc(F)cc1)c1cccnc1 (stereo not given)
EC50 [2]: 0.0173 µM (active)

COc1ccc(S(=O)(=O)N2CCCCC2)cc1NC(=O)c1ccc([N+](=O)[O-])o1
AC50 [1]: 9.14 µM (active) | EC50 [3]: 11.9 µM (active) | EC50 [4]: 4.55 µM (active)

COc1ccc2nc(N(CCN(C)C)C(=O)c3ccc4c(c3)OCCO4)sc2c1
EC50 [5]: 0.095 µM (active) | EC50 [3]: > 60 µM (not active) | EC50 [4]: < 0.1 µM (active)

Cc1nccn1C[C@@H]1CCc2c(c3ccccc3n2C)C1=O [(S)-ONDANSETRON]
IC50 [6]: 1.12 µM (active) | IC50 [7]: 0.0214 µM (active) | AC50 [8]: 10 µM (inconclusive)

CCc1ccc(CN(C)CCc2ccccn2)cc1
EC50 [5]: 0.035 µM (active) | EC50 [3]: > 30 µM (not active) | EC50 [4]: < 0.1 µM (active)

COC1CCC(OC2CC(C3(C)CCC4(CC(O)C(C)C(C(C)/C=C(\C)C(=O)C(C)CC(C)C(=O)O)O4)O3)OC3(OC(C4OC(O)(CO)C(C)CC4C)CC3C)C2C)OC1C (stereo not given)
AC50 [9]: 5.72 µM (active)

CN1CCC(CNC(=O)Nc2ccccc2)(c2ccccc2)CC1
EC50 [2]: 1.33 µM (active)

COc1cccc(Nc2nc(NCC3CCCO3)c3ccccc3n2)c1 (stereo not given)
EC50 [10]: 7.05 µM (active) | EC50 [5]: 0.443 µM (active) | EC50 [3]: > 30 µM (not active) | EC50 [4]: < 0.1 µM (active) | EC50 [11]: 7.57 µM (active)

CCc1ccc(C(CNc2nc(C(F)(F)F)nc3ccccc23)N(C)C)cc1 (stereo not given)
EC50 [12]: 1.06 µM (active) | EC50 [2]: 2.99 µM (active) | EC50 [13]: > 195 µM (not active)

O=C(NC(c1ccc(Cl)cc1)c1cc(Cl)c2cccnc2c1O)c1cccnc1 (stereo not given)
EC50 [14]: > 112 µM (not active) | AC50 [15]: 0.951 µM (active) | EC50 [16]: 0.73 µM (active) | EC50 [17]: 8.56 µM (inconclusive) | EC50 [3]: 6.88 µM (active) | EC50 [18]: 0.66 µM (active) | EC50 [4]: 0.253 µM (active) | AC50 [9]: 24.2 µM (active) | EC50 [19]: > 112 µM (not active) | AC50 [20]: 2 µM (active) | EC50 [21]: 1.36 µM (active)

CCN=C(S)N1CCC(C(O)(c2ccccc2)c2ccccc2)CC1
EC50 [12]: 1.68 µM (active) | EC50 [2]: 10.6 µM (active)

CCn1c2ccccc2c2cc(CNCCCN3CCOCC3)ccc21
EC50 [5]: 0.013 µM (active) | EC50 [3]: > 60 µM (not active) | EC50 [4]: < 0.1 µM (active)

N#Cc1c(N)nc(SCc2ccccn2)c(C#N)c1-c1cccs1
IC50 [6]: 0.0829 µM (active) | IC50 [7]: 0.158 µM (active)

Cc1cccc(N2CCN(C(=O)CCCn3c(=O)[nH]c4ccsc4c3=O)CC2C)c1 (stereo not given)
IC50 [6]: 8.43 µM (active) | IC50 [7]: 9.39 µM (active)

O=c1c2ccccc2[nH]c(=S)n1CCN1CCCC1
IC50 [6]: 4.01 µM (active) | IC50 [7]: 8.33 µM (active)

COc1cccc(/N=c2\oc3ccc(OC)cc3cc2-c2nc3ccccc3[nH]2)c1
IC50 [22]: 41 µM (active) | IC50 [23]: 7.91 µM (active) | IC50 [24]: > 50 µM (inactive) | IC50 [25]: > 67.5 µM (inactive)
